From patent US20230051589A1, “COMPOUNDS AND COMPOSITIONS FOR TREATING CONDITIONS ASSOCIATED WITH NLRP ACTIVITY” (Novartis AG, priority 2018, published 2023)

Tested on: IL-1β production in PMA-differentiated THP-1 cells
Assay: IL-1β production in PMA-differentiated THP-1 cells stimulated with gramicidin (hTHP-1 assay, 2% fetal bovine serum; Procedures 1-3)
Format: cell-based, human
Conditions: Homo sapiens, THP-1, hTHP-1 assay containing 2% fetal bovine serum, Table B2, class symbols; read-out: IC50
How it was run: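 PMA-primed THP-1 cells (20 ng/ml PMA, 16-18 h) in RPMI with 2% FBS were pre-incubated with compounds for 1 h, from 100 μM downward in 3-fold steps (0.37% DMSO final), then stimulated with 5 μM gramicidin for 2 h. IL-1β in the supernatant was quantified by HTRF.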

| SMILES | IC50 [µM] |
| --- | --- |
| CC(C)(O)c1cnc(S(N)(=O)=NC(=O)Nc2c3c(cc4c2CCC4=O)CCC3)s1 (single isomer, unassigned) [Example 589, (R) or (S)-5-(2-hydroxypropan-2-yl)-N′-((1-oxo-1,2,3,5,6,7-hexahydro-s-indacen-4-yl)carbaamoyl) thiazole-2-sulfonimidamide] | 1 to 5 |
| CC(C)(O)c1ccc(S(N)(=O)=NC(=O)Nc2cc3c(c4c2CCC4)CCC3)cn1 (single isomer, unassigned) [Example 591, (R) or (S)-N′-((1,2,3,6,7,8-hexahydro-as-indacen-4-yl)carbamoyl)-6-(2-hydro\ypropan-2-yl)pyridine-3-sulfonimidamide] | 1 to 5 |

More lines, now with the values ahead:

| IC50 [µM] | SMILES |
| --- | --- |
| 1 to 5 | CN1CCc2ccc(S(N)(=O)=NC(=O)Nc3c4c(cc5c3CCC5)CCC4)cc2C1 (single isomer, unassigned) [Example 585, (R) or (S)-N′-((1,2,3,5,6,7-hexahydro-s-indacen-4-yl)carbamoyl)-2-methyl-1,2,3,4-tetrahydroisoquinoline-7-sulfonimidamide] |
| 0.2 to 1 | COc1cc(CN(C)C)ccc1S(N)(=O)=NC(=O)Nc1c2c(cc3c1CCC3)CCC2 (single isomer, unassigned) [Example 606, (R) or (S)-4-((dimethylamino)methyl)-N′-((1,2,3,5,6,7-hexahydro-s-indacen-4-yl)carbamoyl)-2-methoxybenzene-sulfonimidamide] |
| 1 to 5 | CN(Cc1ccc(S(N)(=O)=NC(=O)Nc2c3c(cc4c2CCC4)CCC3)cc1)CC(F)F (single isomer, unassigned) [Example 610, (R) or (S)-4-(((2,2-difluoroethyl) (methyl)amino)methyl)-N′-((1,2,3,5,6,7-hexahydro-s-indacen-4-yl)carbamoyl) benzenesulfonimidamide] |

Same assay, conditions: Homo sapiens, THP-1, hTHP-1 assay containing 2% fetal bovine serum, Table B2, given as bound; read-out: IC50

| SMILES | IC50 [µM] |
| --- | --- |
| NS(=O)(=NC(=O)Nc1c2c(cc3c1CCC3)CCC2)c1ccc(C2CCCC2)nc1 (single isomer, unassigned) [Example 586, (S) or (R)-6-cyclopentyl-N′-((1,2,3,5,6,7-hexahydro-s-indacen-4-yl)carbamoyl)pyridine-3-sulfonimidamide] | > 30 |
| CC(C)(O)c1cnc(S(N)(=O)=NC(=O)Nc2c3c(cc4c2CCC4=O)CCC3)s1 (single isomer, unassigned) [Example 588, (S) or (R)-5-(2-hydroxypropan-2-yl)-N′-((1-oxo-1,2,3,5,6,7-hexahydro-s-indacen-4-yl)carbamoyl) thiazole-2-sulfonimidamide] | > 30 |
| CC(C)(O)c1ccc(S(N)(=O)=NC(=O)Nc2cc3c(c4c2CCC4)CCC3)cn1 (single isomer, unassigned) [Example 590, (S) or (R)-N′-((1,2,3,6,7,8-hexahydro-as-indacen-4-yl)carbamoyl)-6-(2-hydroxypropan-2-yl)pyridine-3-sulfonimidamide] | > 30 |

The next lines start with the values.

| IC50 [µM] | SMILES |
| --- | --- |
| > 30 | CN1CCc2ccc(S(N)(=O)=NC(=O)Nc3c4c(cc5c3CCC5)CCC4)cc2C1 (single isomer, unassigned) [Example 584, (S) or (R)-N′-((1,2,3,5,6,7-hexahydro-s-indacen-4-yl)carbamoyl)-2-methyl-1,2,3,4-tetrahydroisoquinoline-7-sulfonimidamide] |
| > 30 | COc1cc(CN(C)C)ccc1S(N)(=O)=NC(=O)Nc1c2c(cc3c1CCC3)CCC2 (single isomer, unassigned) [Example 607, (S) or (R)-4-((dimethylamino)methyl)-N′-((1,2,3,5,6,7-hexahydro-s-indacen-4-yl)carbamoyl)-2-methoxybenzene-sulfonimidamide] |
| > 30 | CN(Cc1ccc(S(N)(=O)=NC(=O)Nc2c3c(cc4c2CCC4)CCC3)cc1)CC(F)(F)F (single isomer, unassigned) [Example 608, (R) or (R)-N′-((1,2,3,5,6,7-hexahydro-s-indacen-4-yl)carbamoyl)-4-((methyl(2,2,2-trifluoroethyl)amino)methyl) benzenesulfonimidamide] |

Same assay, conditions: hTHP-1 assay containing 2% fetal bovine serum, Table B2, class symbols; read-out: IC50

| SMILES | IC50 [µM] |
| --- | --- |
| N[S@@](=O)(=NC(=O)Nc1c2c(cc3c1CCC3)CCC2)c1ccc(C(F)F)nc1 (single isomer, unassigned) [Example 595, (R) or (S)-6-(difluoromethyl)-N′-((1,2,3,5,6,7-hexahydroxy-indacen-4-yl)carbamovl)pyridine-3-sulfonimidamide] | 1 to 5 |
| CC(C)(O)c1ncc(S(N)(=O)=NC(=O)Nc2c3c(c(Cl)c4c2CCC4)CCC3)s1 (single isomer, unassigned) [Example 596, (S) or (R)-N′-((8-chloro-1,2,3,5,6,7-hexahydro-s-indacen-4-yl)carbamoyl)-2-(2-hydroxypropan-2-yl)thiazole-5-sulfonimidamide] | 1 to 5 |
| CC(C)(O)c1ncc(S(N)(=O)=NC(=O)Nc2c3c(c(Cl)c4c2CCC4)CCC3)s1 (single isomer, unassigned) [Example 597, (R) or (S)-N′-((8-chloro-1,2,3,5,6,7-hexahydro-s-indacen-4-yl)carbamoyl)-2-(2-hydroxypropan-2-yl)thiazole-5-sulfonimidamide] | 0.04 to 0.2 |
| CC(C)(O)c1csc(S(N)(=O)=NC(=O)Nc2c3c(cc4c2CCC4=O)CCC3)c1 (single isomer, unassigned) [Example 598, (R) or (S)-4-(2-hydroxypropan-2-yl)-N′-((1-oxo-1,2,3,5,6,7-hexahydro-s-indacen-4-yl)carbamoyl) thiophene-2-sulfonimidamide] | 0.2 to 1 |
| CC(C)(O)c1csc(S(N)(=O)=NC(=O)Nc2c3c(cc4c2CCC4=O)CCC3)c1 (single isomer, unassigned) [Example 599, (S) or (R)-4-(2-hydroxypropan-2-yl)-N′-((1-oxo-1,2,3,5,6,7-hexahydro-s-indacen-4-yl)carbamoyl) thiophene-2-sulfonimidamide] | 5 to 30 |
| CC(C)(O)c1cc(F)c(S(N)(=O)=NC(=O)Nc2c3c(cc4c2CCC4=O)CCC3)s1 (single isomer, unassigned) [Example 600, (R) or (S)-3-fluoro-5-(2-hydroxypropan-2-yl)-N′-((1-oxo-1,2,3,5,6,7-hexahydro-s-indacen-4-yl)carbamoyl)thiophene-2-sulfonimidamide] | 0.2 to 1 |
| CC(C)(O)c1cc(F)c(S(N)(=O)=NC(=O)Nc2c3c(cc4c2CCC4=O)CCC3)s1 (single isomer, unassigned) [Example 601, (S) or (R)-3-fluoro-5-(2-hydroxypropan-2-yl)-N′-((1-oxo-1,2,3,5,6,7-hexahydro-s-indacen-4-yl)carbamoyl)thiophene-2-sulfonimidamide] | 5 to 30 |
| CN(C)Cc1ccc([S@](N)(=O)=NC(=O)Nc2c3c(cc4c2CCC4)CCC3)cc1F (single isomer, unassigned) [Example 605, (R) or (S)-4-((dimethylamino)methyl)-3-fluoro-N′-((1,2,3,5,6,7-hexahydro-s-indacen-4-yl)carbamoyl) benzenesulfonimidamide] | 0.2 to 1 |

Now from value to compound:

| IC50 [µM] | SMILES |
| --- | --- |
| 5 to 30 | CNC(C)(C)c1ccc(S(N)(=O)=NC(=O)Nc2c3c(cc4c2CCC4)CCC3)c(F)c1 (single isomer, unassigned) [Example 592, (S) or (R)-2-fluoro-N′-((1,2,3,5,6,7-hexahydro-s-indacen-4-yl)carbamoyl)-4-(2-(methylamino)propan-2-yl) benzenesulfonimidamide] |
| 0.2 to 1 | CNC(C)(C)c1ccc(S(N)(=O)=NC(=O)Nc2c3c(cc4c2CCC4)CCC3)c(F)c1 (single isomer, unassigned) [Example 593, (R) or (S)-2-fluoro-N′-((1,2,3,5,6,7-hexahydro-s-indacen-4-yl)carbamoyl)-4-(2-(methylamino)propan-2-yl) benzenesulfonimidamide] |
| 0.2 to 1 | CNC(C)(C)c1ccc(S(N)(=O)=NC(=O)Nc2c3c(cc4c2CCC4)CCC3)cc1 (single isomer, unassigned) [Example 602, (R) or (S)-N′-((1,2,3,5,6,7-hexahydro-s-indacen-4-yl)carbamoyl)-4-(2-(methylamino)propan-2-yl) benzenesuIfonimidamide] |
| 5 to 30 | CNC(C)(C)c1ccc(S(N)(=O)=NC(=O)Nc2c3c(cc4c2CCC4)CCC3)cc1 (single isomer, unassigned) [Example 603, (R) or (S)-N′-((1,2,3,5,6,7-hexahydro-s-indacen-4-yl)carbamoyl)-4-(2-(methylamino)propan-2-yl) benzenesulfonimidamide] |

Same assay, conditions: hTHP-1 assay containing 2% fetal bovine serum, Table B2, given as bound; read-out: IC50

| SMILES | IC50 [µM] |
| --- | --- |
| NS(=O)(=NC(=O)Nc1c2c(cc3c1CCC3)CCC2)c1ccc(C2CCCC2)nc1 (single isomer, unassigned) [Example 587, (R) or (S)-6-cyclopentyl-N′-((1,2,3,5,6,7-hexahydro-s-indacen-4-yl)carbamoyl)pyridine-3-sulfonimidamide] | > 30 |
| N[S@](=O)(=NC(=O)Nc1c2c(cc3c1CCC3)CCC2)c1ccc(C(F)F)nc1 (single isomer, unassigned) [Example 594, (S) or (R)-6-(difluoromethyl)-N′-((1,2,3,5,6,7-hexahydroxy-indacen-4-yl)carbamoyl) pyridine-3-sulfonimidamide] | > 30 |
| CN(C)Cc1ccc([S@@](N)(=O)=NC(=O)Nc2c3c(cc4c2CCC4)CCC3)cc1F (single isomer, unassigned) [Example 604, (S) or (R)-4-((dimethylamino)methyl)-3-fluoro-N′-((1,2,3,5,6,7-hexahydro-s-indacen-4-yl)carbamoyl) benzenesulfonimidamide] | > 30 |
| CN(Cc1ccc(S(N)(=O)=NC(=O)Nc2c3c(cc4c2CCC4)CCC3)cc1)CC(F)(F)F (single isomer, unassigned) [Example 609, (S) or (R)-N′-((1,2,3,5,6,7-hexahydro-s-indacen-4-yl)carbamoyl)-4-((methyl(2,2,2-trifluoroethyl)amino)methyl) benzenesulfonimidamide] | > 30 |
